Assay [1] concerns the target T1, Beta-secretase 1 (Homo sapiens, UniProt P56817). Kind of assay: Inhibition of human recombinant BACE1 at 2 uM by FRET assay.
Assay [2] concerns the target T1, Beta-secretase 1.
Description: (§1) Inhibition of human recombinant BACE1 by FRET assay
Assay [3] concerns the target T1, Beta-secretase 1. Description: Inhibition of human recombinant BACE1 at 0.2 uM by FRET assay.
In assay [4] the target is T1, Beta-secretase 1. This is another data set of the same source.
Description: as §1

Active and inactive are the calls of the source. No cut-off for these calls is given here.

As a reminder, the inhibition is how much of the control response was suppressed. Broadly, the IC50 is the concentration that gives 50% inhibition.

T1 sequence (P56817 whole entry): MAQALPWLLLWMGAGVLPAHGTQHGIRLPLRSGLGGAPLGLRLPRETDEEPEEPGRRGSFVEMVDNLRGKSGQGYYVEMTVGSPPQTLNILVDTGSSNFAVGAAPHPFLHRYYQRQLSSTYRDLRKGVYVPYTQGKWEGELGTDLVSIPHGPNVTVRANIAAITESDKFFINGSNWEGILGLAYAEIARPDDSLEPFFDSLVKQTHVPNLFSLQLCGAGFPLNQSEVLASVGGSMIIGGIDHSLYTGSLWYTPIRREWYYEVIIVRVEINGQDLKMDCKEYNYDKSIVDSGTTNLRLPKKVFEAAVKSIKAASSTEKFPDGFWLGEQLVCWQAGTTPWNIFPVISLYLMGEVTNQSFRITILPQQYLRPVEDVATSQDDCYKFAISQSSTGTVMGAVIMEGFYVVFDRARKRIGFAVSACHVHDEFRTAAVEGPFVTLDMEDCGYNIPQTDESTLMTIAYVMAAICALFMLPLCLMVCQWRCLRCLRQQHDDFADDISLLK

Turning to `C[C@@H](NC(=O)c1cc(=O)cc(C(=O)N[C@@H](Cc2ccccc2)[C@H](O)C(=O)Nc2cccc(-c3nn[nH]n3)c2)[nH]1)c1ccccc1`, the inhibition at Beta-secretase 1 [1] turned out to be 51%.

`O=C(N[C@@H](Cc1ccccc1)[C@H](O)C(=O)Nc1cccc(-c2nnn[nH]2)c1)c1cccc(C(=O)N2COC[C@@H]2c2ccccc2)n1` returned a half-maximal inhibitory concentration (IC50) on Beta-secretase 1 [2] of 0.14 µM.

Regarding `CC(C)(NC(=O)c1cc(=O)cc(C(=O)N[C@@H](Cc2ccccc2)[C@H](O)C(=O)Nc2cccc(-c3nn[nH]n3)c2)o1)c1ccccc1`, on Beta-secretase 1 [1], the inhibition is 81%.

With `O=C(N[C@@H](Cc1ccccc1)[C@H](O)C(=O)Nc1cccc(-c2nn[nH]n2)c1)c1cc(=O)cc(C(=O)N2COC[C@@H]2c2ccccc2)[nH]1`, the inhibition at Beta-secretase 1 [3] is 36%; at Beta-secretase 1 [1], 83%.

As for `CCCN(CCC)C(=O)c1cccc(C(=O)N[C@@H](Cc2ccccc2)[C@@H](O)C(=O)Nc2cccc(C(=O)O)c2)n1`, the result on Beta-secretase 1 [4] was inactive.

On to `CS(=O)(=O)Oc1cc(C(=O)N[C@@H](Cc2ccccc2)[C@H](O)C(=O)Nc2cccc(-c3nnn[nH]3)c2)nc(C(=O)N2COC[C@@H]2c2ccccc2)c1`, for which the IC50 at Beta-secretase 1 [2] was found to be 0.096 µM.

As to `C[C@@H](NC(=O)c1cc(=O)cc(C(=O)N[C@@H](Cc2ccccc2)[C@H](O)C(=O)Nc2cccc(-c3nn[nH]n3)c2)o1)c1ccccc1`, the inhibition at Beta-secretase 1 [1] was 70%.

In the case of `O=C(N[C@@H](Cc1ccccc1)[C@H](O)C(=O)Nc1cccc(-c2nnn[nH]2)c1)c1cc(O)cc(C(=O)N2COC[C@@H]2c2ccccc2)n1`, the half-inhibitory concentration (IC50) against Beta-secretase 1 [2] came out at 0.36 µM.

For `CC(C)(NC(=O)c1cccc(C(=O)N[C@@H](Cc2ccccc2)[C@H](O)C(=O)Nc2cccc(-c3nn[nH]n3)c2)n1)c1ccccc1`, the inhibition on Beta-secretase 1 [1] came to 69%.

Regarding `CS(=O)(=O)Oc1cc(C(=O)N[C@@H](Cc2ccccc2)[C@H](O)C(=O)Nc2cccc(-c3nn[nH]n3)c2)nc(C(=O)N2COC[C@@H]2c2ccccc2)c1`, the results for the inhibition on Beta-secretase 1 [3] and at Beta-secretase 1 [1] were 73% and 96%, respectively.

For the molecule `O=C(N[C@@H](Cc1ccccc1)[C@H](O)C(=O)Nc1cccc(-c2nn[nH]n2)c1)c1cccc(C(=O)N2COC[C@@H]2c2ccccc2)n1`, the inhibition at Beta-secretase 1 [3] was determined as 63%; at Beta-secretase 1 [1], 93%.

As to `C[C@@H](NC(=O)c1cccc(C(=O)N[C@@H](Cc2ccccc2)[C@H](O)C(=O)Nc2cccc(-c3nn[nH]n3)c2)n1)c1ccccc1`, the inhibition on Beta-secretase 1 [1] worked out at 66%.

In the case of `CC(C)(NC(=O)c1cc(OS(C)(=O)=O)cc(C(=O)N[C@@H](Cc2ccccc2)[C@H](O)C(=O)Nc2cccc(-c3nn[nH]n3)c2)n1)c1ccccc1`, the inhibition at Beta-secretase 1 [1] worked out at 84%.

For `O=C(N[C@@H](Cc1ccccc1)[C@H](O)C(=O)Nc1cccc(-c2nn[nH]n2)c1)c1cc(=O)cc(C(=O)N2COC[C@@H]2c2ccccc2)o1`, the inhibition is 78% at Beta-secretase 1 [3] and 96% at Beta-secretase 1 [1]. This molecule showed an IC50 against Beta-secretase 1 [2] of 0.05 µM.

Take `CC(C)(NC(=O)c1cc(=O)cc(C(=O)N[C@@H](Cc2ccccc2)[C@H](O)C(=O)Nc2cccc(-c3nn[nH]n3)c2)[nH]1)c1ccccc1`: the inhibition on Beta-secretase 1 [1] came to 65%.

The values above are taken from ChEMBL document CHEMBL1141518, “Novel non-peptidic and small-sized BACE1 inhibitors” (Bioorg Med Chem Lett, 2008).
